Laboratory results from ChEMBL document CHEMBL5291721, “A preclinical secondary pharmacology resource illuminates target-adverse drug reaction associations of marketed drugs” (Nat Commun, 2023).

Experiments:
[1] = target: T1, Progesterone receptor (Homo sapiens, UniProt P06401)
T1 sequence (P06401 whole entry): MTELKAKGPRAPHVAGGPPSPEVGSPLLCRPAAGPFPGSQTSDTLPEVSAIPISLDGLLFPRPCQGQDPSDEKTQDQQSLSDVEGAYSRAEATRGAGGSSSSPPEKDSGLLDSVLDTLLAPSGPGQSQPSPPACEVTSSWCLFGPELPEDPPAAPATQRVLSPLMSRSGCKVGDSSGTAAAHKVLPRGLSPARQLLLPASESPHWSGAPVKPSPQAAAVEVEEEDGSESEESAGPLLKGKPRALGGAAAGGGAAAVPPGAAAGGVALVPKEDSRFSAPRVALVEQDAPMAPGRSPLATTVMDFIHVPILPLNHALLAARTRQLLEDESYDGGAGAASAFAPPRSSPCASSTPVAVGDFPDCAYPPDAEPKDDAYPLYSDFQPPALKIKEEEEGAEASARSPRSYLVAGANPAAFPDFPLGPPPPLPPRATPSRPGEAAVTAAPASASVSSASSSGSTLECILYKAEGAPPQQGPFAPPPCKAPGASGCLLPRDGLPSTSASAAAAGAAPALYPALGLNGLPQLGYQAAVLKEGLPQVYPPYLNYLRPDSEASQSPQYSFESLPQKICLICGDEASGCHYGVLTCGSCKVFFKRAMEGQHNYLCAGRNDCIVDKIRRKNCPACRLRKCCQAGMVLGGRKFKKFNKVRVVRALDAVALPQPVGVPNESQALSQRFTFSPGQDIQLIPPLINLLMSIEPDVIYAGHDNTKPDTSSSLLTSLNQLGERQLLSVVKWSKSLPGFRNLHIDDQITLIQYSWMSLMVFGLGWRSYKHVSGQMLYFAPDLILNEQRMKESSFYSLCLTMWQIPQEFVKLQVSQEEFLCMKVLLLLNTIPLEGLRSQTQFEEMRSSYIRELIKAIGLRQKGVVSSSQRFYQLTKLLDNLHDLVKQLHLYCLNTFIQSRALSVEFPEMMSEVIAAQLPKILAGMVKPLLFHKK

[2] = target: T2, D(1A) dopamine receptor (Homo sapiens, UniProt P21728)
T2 sequence (P21728 whole entry): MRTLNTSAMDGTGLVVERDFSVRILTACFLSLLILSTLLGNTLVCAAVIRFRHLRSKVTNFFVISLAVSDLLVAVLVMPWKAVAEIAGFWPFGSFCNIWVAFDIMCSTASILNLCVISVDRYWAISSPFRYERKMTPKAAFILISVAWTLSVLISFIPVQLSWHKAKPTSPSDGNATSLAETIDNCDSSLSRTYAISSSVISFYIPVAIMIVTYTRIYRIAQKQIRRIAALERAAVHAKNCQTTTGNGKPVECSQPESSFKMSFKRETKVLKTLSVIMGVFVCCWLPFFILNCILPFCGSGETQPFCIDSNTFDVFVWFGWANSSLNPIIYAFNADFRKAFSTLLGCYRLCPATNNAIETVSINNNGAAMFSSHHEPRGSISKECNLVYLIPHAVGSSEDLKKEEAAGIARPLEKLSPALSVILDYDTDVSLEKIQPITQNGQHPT

[3] = target: Sodium-dependent serotonin transporter (Homo sapiens, UniProt P31645)
Sequence of Sodium-dependent serotonin transporter (P31645 whole entry): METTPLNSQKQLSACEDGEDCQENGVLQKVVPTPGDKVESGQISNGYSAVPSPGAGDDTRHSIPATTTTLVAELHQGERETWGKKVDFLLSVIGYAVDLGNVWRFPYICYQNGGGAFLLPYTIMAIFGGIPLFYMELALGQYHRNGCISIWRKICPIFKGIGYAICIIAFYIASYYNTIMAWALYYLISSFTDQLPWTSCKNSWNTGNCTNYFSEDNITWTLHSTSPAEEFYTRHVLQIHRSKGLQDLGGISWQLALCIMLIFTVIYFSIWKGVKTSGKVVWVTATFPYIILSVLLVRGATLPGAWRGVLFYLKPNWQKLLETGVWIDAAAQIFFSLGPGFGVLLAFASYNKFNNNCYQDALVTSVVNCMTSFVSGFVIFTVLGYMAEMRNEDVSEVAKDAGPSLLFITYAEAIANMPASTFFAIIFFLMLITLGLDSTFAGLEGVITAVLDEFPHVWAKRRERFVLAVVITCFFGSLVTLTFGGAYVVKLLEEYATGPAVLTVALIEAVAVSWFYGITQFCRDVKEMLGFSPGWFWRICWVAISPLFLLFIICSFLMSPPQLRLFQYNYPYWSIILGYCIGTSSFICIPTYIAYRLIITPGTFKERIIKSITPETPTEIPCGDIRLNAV

[4] = target: Melanocortin receptor 4 (Homo sapiens, UniProt P32245)
Sequence of Melanocortin receptor 4 (P32245 whole entry): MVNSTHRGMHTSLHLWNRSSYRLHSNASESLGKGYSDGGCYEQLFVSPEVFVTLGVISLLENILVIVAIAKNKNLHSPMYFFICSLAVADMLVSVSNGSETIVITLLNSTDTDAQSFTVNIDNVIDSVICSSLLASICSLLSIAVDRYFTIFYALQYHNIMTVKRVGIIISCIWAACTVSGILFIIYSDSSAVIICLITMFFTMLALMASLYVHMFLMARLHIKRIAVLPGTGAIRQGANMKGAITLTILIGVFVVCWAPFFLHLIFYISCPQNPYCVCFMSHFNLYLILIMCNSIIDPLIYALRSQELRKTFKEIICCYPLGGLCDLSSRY

[5] = target: T3, Adenosine receptor A3 (Homo sapiens, UniProt P0DMS8)
T3 sequence (P0DMS8 whole entry): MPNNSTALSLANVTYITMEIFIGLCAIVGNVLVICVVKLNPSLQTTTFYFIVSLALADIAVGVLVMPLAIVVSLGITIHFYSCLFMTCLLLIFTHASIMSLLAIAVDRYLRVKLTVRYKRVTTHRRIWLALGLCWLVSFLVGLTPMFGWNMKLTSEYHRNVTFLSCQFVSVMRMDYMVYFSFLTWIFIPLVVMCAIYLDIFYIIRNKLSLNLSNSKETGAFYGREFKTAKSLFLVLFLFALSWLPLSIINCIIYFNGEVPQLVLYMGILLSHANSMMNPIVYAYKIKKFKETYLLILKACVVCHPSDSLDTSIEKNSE

[6] = target: T4, Equilibrative nucleoside transporter 1 (Homo sapiens, UniProt Q99808)
T4 sequence (Q99808 whole entry): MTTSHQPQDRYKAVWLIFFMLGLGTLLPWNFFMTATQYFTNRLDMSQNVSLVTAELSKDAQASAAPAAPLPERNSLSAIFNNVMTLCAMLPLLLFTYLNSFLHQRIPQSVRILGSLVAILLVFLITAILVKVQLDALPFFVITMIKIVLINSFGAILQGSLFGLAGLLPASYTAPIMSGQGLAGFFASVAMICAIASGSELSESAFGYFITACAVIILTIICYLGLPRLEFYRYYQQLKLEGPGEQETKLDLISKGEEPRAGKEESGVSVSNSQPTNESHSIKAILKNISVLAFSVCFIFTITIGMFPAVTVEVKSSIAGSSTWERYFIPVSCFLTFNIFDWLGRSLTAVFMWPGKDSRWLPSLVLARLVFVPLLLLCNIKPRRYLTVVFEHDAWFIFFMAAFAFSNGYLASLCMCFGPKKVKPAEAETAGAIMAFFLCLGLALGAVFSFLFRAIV

[7] = target: T5, Neuropeptide Y receptor type 1 (Homo sapiens, UniProt P25929)
T5 sequence (P25929 whole entry): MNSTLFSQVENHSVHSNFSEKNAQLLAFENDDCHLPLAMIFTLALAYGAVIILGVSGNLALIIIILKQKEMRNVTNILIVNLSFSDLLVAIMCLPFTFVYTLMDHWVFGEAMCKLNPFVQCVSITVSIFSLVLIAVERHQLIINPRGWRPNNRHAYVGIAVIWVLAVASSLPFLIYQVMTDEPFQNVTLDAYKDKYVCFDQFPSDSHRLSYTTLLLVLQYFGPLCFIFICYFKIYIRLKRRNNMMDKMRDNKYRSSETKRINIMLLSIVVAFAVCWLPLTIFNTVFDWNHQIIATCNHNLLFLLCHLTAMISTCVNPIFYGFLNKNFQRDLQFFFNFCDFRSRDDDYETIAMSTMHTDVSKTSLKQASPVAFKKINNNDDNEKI

[8] = target: 5-hydroxytryptamine receptor 2B (Homo sapiens, UniProt P41595); format: functional, cell-based
Sequence of 5-hydroxytryptamine receptor 2B (P41595 whole entry): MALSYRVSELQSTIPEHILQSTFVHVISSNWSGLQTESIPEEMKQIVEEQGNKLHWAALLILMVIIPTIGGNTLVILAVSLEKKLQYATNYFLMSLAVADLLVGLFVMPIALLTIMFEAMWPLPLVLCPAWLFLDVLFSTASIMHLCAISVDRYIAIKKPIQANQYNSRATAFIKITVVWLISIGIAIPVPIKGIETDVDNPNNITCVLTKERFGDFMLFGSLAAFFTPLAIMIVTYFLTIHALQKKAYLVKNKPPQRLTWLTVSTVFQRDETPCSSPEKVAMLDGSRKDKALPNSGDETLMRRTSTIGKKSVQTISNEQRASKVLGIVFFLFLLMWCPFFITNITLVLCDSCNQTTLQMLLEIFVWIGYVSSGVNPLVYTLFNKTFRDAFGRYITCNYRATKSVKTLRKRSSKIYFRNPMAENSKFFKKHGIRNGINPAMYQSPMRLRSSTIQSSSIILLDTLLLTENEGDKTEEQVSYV

[9] = target: T1, Progesterone receptor; format: functional
[10] = target: T2, D(1A) dopamine receptor; format: functional, cell-based
[11] = target: Histamine H2 receptor (Homo sapiens, UniProt P25021); format: functional, cell-based
Sequence of Histamine H2 receptor (P25021 whole entry): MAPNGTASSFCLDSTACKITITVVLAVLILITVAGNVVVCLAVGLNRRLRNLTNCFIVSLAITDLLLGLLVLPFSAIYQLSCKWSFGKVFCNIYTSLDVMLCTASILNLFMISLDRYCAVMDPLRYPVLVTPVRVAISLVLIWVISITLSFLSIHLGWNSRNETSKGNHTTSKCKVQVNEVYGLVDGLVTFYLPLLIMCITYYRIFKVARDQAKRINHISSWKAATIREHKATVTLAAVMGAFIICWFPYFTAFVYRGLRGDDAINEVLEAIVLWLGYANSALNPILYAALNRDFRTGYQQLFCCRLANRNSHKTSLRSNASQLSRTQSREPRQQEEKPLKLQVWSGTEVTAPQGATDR

[12] = target: T6, Alpha-1A adrenergic receptor (Homo sapiens, UniProt P35348); format: functional, cell-based
T6 sequence (P35348 whole entry): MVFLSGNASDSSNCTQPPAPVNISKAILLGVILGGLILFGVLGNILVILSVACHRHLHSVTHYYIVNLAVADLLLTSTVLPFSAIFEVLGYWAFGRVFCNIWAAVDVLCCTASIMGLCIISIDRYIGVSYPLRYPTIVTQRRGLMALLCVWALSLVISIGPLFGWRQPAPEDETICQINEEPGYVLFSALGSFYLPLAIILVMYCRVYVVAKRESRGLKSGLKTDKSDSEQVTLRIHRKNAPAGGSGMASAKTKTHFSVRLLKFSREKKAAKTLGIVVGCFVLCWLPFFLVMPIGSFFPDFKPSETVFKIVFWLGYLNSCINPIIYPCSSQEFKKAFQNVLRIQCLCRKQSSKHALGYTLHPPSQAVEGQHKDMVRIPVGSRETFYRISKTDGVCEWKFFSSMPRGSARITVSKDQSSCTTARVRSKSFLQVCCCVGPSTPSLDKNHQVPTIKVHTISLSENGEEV
Further: assay procedure not described here.

SMILES	AC50 [1]	AC50 [2]	AC50 [3]	AC50 [4]	AC50 [5]	AC50 [6]	AC50 [7]	AC50 [8]	AC50 [9]	AC50 [10]	AC50 [11]	AC50 [12]
Cc1cc2c(cc1S(N)(=O)=O)S(=O)(=O)CCC2	> 30 µM	> 30 µM	> 30 µM									
C[C@H](N[C@@H](CCc1ccccc1)C(=O)O)C(=O)N1Cc2ccccc2C[C@H]1C(=O)O	> 30 µM	> 30 µM	> 30 µM									
O=C(O)[C@@H]1C[C@@H](O)CN1	> 30 µM	> 30 µM	> 30 µM									
CC1(C)S[C@@H]2[C@H](/N=C/N3CCCCCC3)C(=O)N2[C@H]1C(=O)O [AMDINOCILLIN]	> 30 µM	> 30 µM	> 30 µM									
CC(=O)[C@]1(N)Cc2c(O)c3c(c(O)c2[C@@H](O[C@H]2C[C@H](O)[C@H](O)CO2)C1)C(=O)c1ccccc1C3=O [AMRUBICIN]	> 30 µM	> 30 µM	> 30 µM									
NC(=O)[C@@H]1CC[C@@H]2CN1C(=O)N2OS(=O)(=O)O [AVIBACTAM]	> 30 µM	> 30 µM	> 30 µM									
O=C(/C=C/c1cccc(S(=O)(=O)Nc2ccccc2)c1)NO [BELINOSTAT]	> 30 µM	> 30 µM		> 30 µM	> 30 µM	> 30 µM	> 30 µM					
CC(O)(CS(=O)(=O)c1ccc(F)cc1)C(=O)Nc1ccc(C#N)c(C(F)(F)F)c1 (stereo not given) [BICALUTAMIDE]	0.46 µM	> 30 µM		> 30 µM	> 30 µM	> 30 µM	> 30 µM	> 10 µM	> 30 µM	> 10 µM	> 10 µM	> 30 µM
CC(C)(C)NC(=O)N[C@H](C(=O)N1C[C@H]2[C@@H]([C@H]1C(=O)NC(CC1CCC1)C(=O)C(N)=O)C2(C)C)C(C)(C)C (stereo not given in full) [BOCEPREVIR]	> 30 µM	> 30 µM	> 30 µM									
O=C(O)COCCN1CCN(C(c2ccccc2)c2ccc(Cl)cc2)CC1 (stereo not given) [CETIRIZINE]	> 30 µM			> 30 µM	> 30 µM	> 30 µM	> 30 µM					> 30 µM
Cc1ncc2c(c1O)COC2c1ccc(Cl)cc1 (stereo not given) [CICLETANINE]	> 30 µM	> 30 µM	> 30 µM									
Cc1cn([C@H]2O[C@@H](CO)[C@H](O)[C@H]2F)c(=O)[nH]c1=O [CLEVUDINE]	> 30 µM	> 30 µM	> 30 µM									
N#Cc1ccc(Oc2ccc3c(c2)COB3O)cc1 [CRISABOROLE]	> 30 µM	> 30 µM	> 30 µM									
CC(=O)O[C@]1(C(C)=O)CC[C@H]2[C@@H]3C=C(Cl)C4=CC(=O)[C@@H]5C[C@@H]5[C@]4(C)[C@H]3CC[C@@]21C [CYPROTERONE ACETATE]		> 30 µM		> 30 µM	> 30 µM	> 30 µM	> 30 µM					
CC(=O)[C@H]1CC[C@H]2[C@@H]3C=CC4=CC(=O)CC[C@@]4(C)[C@@H]3CC[C@]12C [DYDROGESTERONE]		> 30 µM	> 30 µM									
CC(=O)O[C@H]1Cc2ccccc2N(C(N)=O)c2ccccc21 [ESLICARBAZEPINE ACETATE]	> 30 µM	> 30 µM	> 30 µM									
C[C@@H]1C[C@H]2[C@@H]3C[C@H](F)C4=CC(=O)C=C[C@]4(C)[C@@]3(F)[C@@H](O)C[C@]2(C)[C@@]1(OC(=O)c1ccco1)C(=O)SCF [FLUTICASONE FUROATE]		> 30 µM		> 10 µM	> 10 µM	> 10 µM	> 10 µM	> 10 µM		> 10 µM	> 10 µM	> 30 µM
Cc1ccc(S(=O)(=O)NC(=O)NC2CCCCC2)cc1 [GLYCYCLAMIDE]	> 30 µM	> 30 µM	> 30 µM									
CN1CCCN(C(c2ccccc2)c2ccc(Cl)cc2)CC1 (stereo not given) [HOMOCHLORCYCLIZINE]	> 30 µM	2.4 µM	2.98 µM									
CC(=O)OCC(=O)[C@@]1(O)CC[C@H]2[C@@H]3CCC4=CC(=O)CC[C@]4(C)[C@H]3[C@@H](O)C[C@@]21C [HYDROCORTISONE ACETATE]	7.67 µM	> 30 µM	> 30 µM									
CC(COc1ccccc1)NC(C)C(O)c1ccc(O)cc1 (stereo not given) [ISOXSUPRINE]	> 30 µM	9.44 µM	5.55 µM									
O=C(CCC/C=C\C[C@@H]1[C@@H](CC[C@@H](O)CCc2ccccc2)[C@H](O)C[C@@H]1O)OCCCCO[N+](=O)[O-] [LATANOPROSTENE BUNOD]	> 30 µM	> 30 µM	> 30 µM									
COC(=O)[C@H]1[C@H]2C[C@@H]3c4[nH]c5cc(OC)ccc5c4CCN3C[C@H]2C[C@@H](OC(=O)c2cc(OC)c(OC)c(OC)c2)[C@@H]1OC [RESERPINE]	> 30 µM	> 30 µM		> 10 µM	26.5 µM	28.5 µM	> 10 µM	> 10 µM	> 10 µM	> 10 µM	> 30 µM	
C[C@]12CCC(=O)C[C@@H]1CC[C@@H]1[C@@H]2CC[C@]2(C)[C@@H](O)CC[C@@H]12 [STANOLONE]				> 30 µM	> 30 µM	> 30 µM	> 30 µM	> 30 µM	0.0396 µM	> 30 µM	> 30 µM	> 30 µM
C[C@]12C=CC(=O)C=C1CC[C@@H]1[C@@H]2CC[C@]2(C)OC(=O)CC[C@@H]12 [TESTOLACTONE]				> 10 µM	> 10 µM	> 10 µM	> 10 µM	> 30 µM	> 10 µM	> 10 µM	> 10 µM	> 30 µM
